ChEMBL document CHEMBL1201862, “PubChem BioAssay data set” (2004)
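Tested at 5 concentrations; 48 h exposure; 96-well plates; endpoints linearly interpolated, else capped at highest concentration. The concentration for 50% growth inhibition is given as GI50.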 Active and inactive are the calls of the source. Rule as the data show it: active = GI50 up to about 1.1 µM and inactive = higher.

Assays:
Assay in all cases: NCI anticancer screen, dose series, 48 h
[1] = test system: HCT-116
[2] = test system: PC-3
[3] = test system: DU-145
[4] = test system: SW-620
[5] = test system: MDA-MB-231
[6] = test system: EKVX
[7] = test system: SR
[8] = test system: T47D
[9] = test system: Malme-3M
[10] = test system: RPMI-8226
[11] = test system: SNB-75
[12] = test system: HOP-92
[13] = test system: Hs-578T
[14] = test system: RXF 393
[15] = test system: A549
[16] = test system: M14
[17] = test system: SNB-19
[18] = test system: NCI-H522
[19] = test system: CCRF-CEM

| SMILES | GI50 [1] | GI50 [2] | GI50 [3] | GI50 [4] | GI50 [5] | GI50 [6] | GI50 [7] | GI50 [8] | GI50 [9] | GI50 [10] | GI50 [11] | GI50 [12] | GI50 [13] | GI50 [14] | GI50 [15] | GI50 [16] | GI50 [17] | GI50 [18] | GI50 [19] |
| --- | --- | --- | --- | --- | --- | --- | --- | --- | --- | --- | --- | --- | --- | --- | --- | --- | --- | --- | --- |
| O=C(O)CSc1ccc([N+](=O)[O-])cc1[N+](=O)[O-] | > 100 µM (inactive) | > 100 µM (inactive) | > 100 µM (inactive) | > 100 µM (inactive) | > 100 µM (inactive) | > 100 µM (inactive) | > 100 µM (inactive) | > 100 µM (inactive) | > 100 µM (inactive) | > 100 µM (inactive) | > 100 µM (inactive) | > 100 µM (inactive) | > 100 µM (inactive) | > 100 µM (inactive) | > 100 µM (inactive) | > 100 µM (inactive) | > 100 µM (inactive) | > 100 µM (inactive) |  |
| CC(=O)NC1(NC(C)=O)C2CC(C1Cc1ccccc1)C(C)(C)C2C (stereo not drawn) | > 100 µM (inactive) | > 100 µM (inactive) | > 100 µM (inactive) | > 100 µM (inactive) | > 100 µM (inactive) | > 100 µM (inactive) | > 100 µM (inactive) | > 100 µM (inactive) | > 100 µM (inactive) |  | > 100 µM (inactive) | > 100 µM (inactive) | > 100 µM (inactive) | > 100 µM (inactive) | > 100 µM (inactive) | > 100 µM (inactive) | > 100 µM (inactive) | > 100 µM (inactive) | > 100 µM (inactive) |
| COc1ccc(OC)c(C23CCCC(C2)N(C)CC3)c1 (stereo not drawn) | 13.8 µM (inactive) | 16.4 µM (inactive) | 32.7 µM (inactive) |  | 21.3 µM (inactive) | 43.6 µM (inactive) | 18.4 µM (inactive) | 33.3 µM (inactive) |  | 12.7 µM (inactive) |  |  | 38.1 µM (inactive) | 29.9 µM (inactive) | 22.3 µM (inactive) | 17.6 µM (inactive) | 6.75 µM (inactive) |  |  |
| O=c1c2cc(I)ccc2nc(S)n1Cc1ccccc1 | 9.14 µM (inactive) | 13.7 µM (inactive) | 20.2 µM (inactive) | 59 µM (inactive) | 13.1 µM (inactive) | 5.52 µM (inactive) | 30.7 µM (inactive) | > 100 µM (inactive) |  | 6.61 µM (inactive) | 20.6 µM (inactive) | 8.75 µM (inactive) | 16 µM (inactive) | 16.6 µM (inactive) | 15.9 µM (inactive) | 9.25 µM (inactive) | 18.9 µM (inactive) | 3.96 µM (inactive) | 5.69 µM (inactive) |
| O=c1c2c3c(sc2nc2n1NC=NN2)CCCC3 | 17.9 µM (inactive) | 24.2 µM (inactive) | 36.6 µM (inactive) | 17.6 µM (inactive) | 13.4 µM (inactive) | 13.3 µM (inactive) |  | 31.8 µM (inactive) | 21.4 µM (inactive) | 20.5 µM (inactive) | 23.8 µM (inactive) | 18.1 µM (inactive) | 21.8 µM (inactive) | 25.2 µM (inactive) | > 83.4 µM (inactive) | 25.8 µM (inactive) | 42.7 µM (inactive) | 16.3 µM (inactive) | 0.731 µM (active) |
| CSc1nc(Br)nc2ncn(C3CC(Oc4ccc(C)cc4)C(COc4ccc(C)cc4)O3)c12 (stereo not drawn) | > 100 µM (inactive) | > 100 µM (inactive) | > 100 µM (inactive) | > 100 µM (inactive) | > 100 µM (inactive) | > 100 µM (inactive) | 3.72 µM (inactive) | > 100 µM (inactive) | > 100 µM (inactive) | > 100 µM (inactive) | 21.9 µM (inactive) | 34 µM (inactive) | 25.1 µM (inactive) |  | > 100 µM (inactive) | > 100 µM (inactive) | > 100 µM (inactive) | > 100 µM (inactive) | > 100 µM (inactive) |
| O=[N+]([O-])c1ccc(NC(=S)N/N=C(\c2ccccc2)c2ccccn2)cc1 | 1.49 µM (inactive) | 0.229 µM (active) | 1.66 µM (inactive) |  | < 0.01 µM (active) | 0.231 µM (active) |  | 1.45 µM (inactive) | 1.65 µM (inactive) | 4.74 µM (inactive) | 2.1 µM (inactive) | 1.87 µM (inactive) | 3.3 µM (inactive) | 1.38 µM (inactive) | 1.82 µM (inactive) | 1.02 µM (active) | 1.58 µM (inactive) | 0.12 µM (active) | < 0.0184 µM (active) |
| O=C(O)c1cc([N+](=O)[O-])cc2c(=O)c3cnccc3[nH]c12 | > 100 µM (inactive) | 29.6 µM (inactive) | > 100 µM (inactive) |  | > 100 µM (inactive) |  | > 100 µM (inactive) | > 100 µM (inactive) | > 100 µM (inactive) | > 100 µM (inactive) | > 100 µM (inactive) |  | > 100 µM (inactive) | > 100 µM (inactive) |  | > 100 µM (inactive) | > 100 µM (inactive) | > 100 µM (inactive) | > 100 µM (inactive) |
| Cc1cnoc1/N=C1\C=C(O)C(=O)c2ccccc21 | 19.9 µM (inactive) | 25.4 µM (inactive) | 18 µM (inactive) | 25.8 µM (inactive) | 25.6 µM (inactive) | 29.5 µM (inactive) | 33.6 µM (inactive) | 27.9 µM (inactive) | 3.02 µM (inactive) | 15.4 µM (inactive) | 10.4 µM (inactive) | 29.4 µM (inactive) | 7.6 µM (inactive) |  | 6.7 µM (inactive) | 12.5 µM (inactive) | 16.3 µM (inactive) | 34.5 µM (inactive) | 16.1 µM (inactive) |
| CO/N=C(/C)c1cccc(Nc2nc3ccc(Cl)cc3c3[nH]c4ccccc4c23)c1 | 4.21 µM (inactive) | 14 µM (inactive) | 12.2 µM (inactive) | 6.08 µM (inactive) | 13.4 µM (inactive) |  | 4.72 µM (inactive) | 2.47 µM (inactive) |  | 3.2 µM (inactive) |  | 3.65 µM (inactive) | 16.7 µM (inactive) | 1.52 µM (inactive) | 12.8 µM (inactive) | 6.92 µM (inactive) | 15 µM (inactive) | 4.75 µM (inactive) | 23 µM (inactive) |
| COC(=O)[C@]12CC[C@H]3CN(S(=O)(=O)c4ccc(C)cc4)[C@H]([C@H]31)[C@H](c1ccco1)N2S(=O)(=O)c1ccc(C)cc1 | 27.2 µM (inactive) | 28.8 µM (inactive) | 40.6 µM (inactive) | 70.1 µM (inactive) | 55.8 µM (inactive) | 51.1 µM (inactive) | 38.7 µM (inactive) | 14.1 µM (inactive) | 23.8 µM (inactive) | 20 µM (inactive) |  | 10.1 µM (inactive) | > 100 µM (inactive) | 16.8 µM (inactive) | 31.2 µM (inactive) | 26.8 µM (inactive) | > 100 µM (inactive) | 29.9 µM (inactive) | 45.3 µM (inactive) |
| O=C1Sc2ccccc2NC1=C(C(=O)c1ccccc1)C(=O)c1ccccc1 | 18.7 µM (inactive) | 20.6 µM (inactive) | 21.2 µM (inactive) | 30.2 µM (inactive) | 65.6 µM (inactive) | 33.1 µM (inactive) |  | 26.5 µM (inactive) | 41.2 µM (inactive) | 12.6 µM (inactive) | 31.6 µM (inactive) | 36.6 µM (inactive) | 62.5 µM (inactive) | 47.1 µM (inactive) | 27.5 µM (inactive) | 15.2 µM (inactive) | 33 µM (inactive) | 18.4 µM (inactive) | 1.18 µM (inactive) |
| O=c1[nH]c(NCc2ccncc2)nc2[nH]cnc12 | > 100 µM (inactive) | > 100 µM (inactive) | > 100 µM (inactive) | > 100 µM (inactive) | > 100 µM (inactive) | > 100 µM (inactive) |  | > 100 µM (inactive) | > 100 µM (inactive) | > 100 µM (inactive) | > 100 µM (inactive) | > 100 µM (inactive) | > 100 µM (inactive) | > 100 µM (inactive) | > 100 µM (inactive) | > 100 µM (inactive) | > 100 µM (inactive) | > 100 µM (inactive) | > 100 µM (inactive) |
| COc1ccc(CCCNC(=O)c2cc(OC)c(OC)cc2CCO)cc1OC | > 100 µM (inactive) | > 100 µM (inactive) | > 100 µM (inactive) | > 100 µM (inactive) | > 100 µM (inactive) | > 100 µM (inactive) | > 100 µM (inactive) | > 100 µM (inactive) |  | > 100 µM (inactive) | > 100 µM (inactive) | > 100 µM (inactive) | > 100 µM (inactive) | > 100 µM (inactive) | > 100 µM (inactive) | > 100 µM (inactive) | > 100 µM (inactive) | > 100 µM (inactive) | > 10 µM (inactive) |
| O=C1CC(c2ccc(Cl)cc2)Oc2ccccc21 (stereo not drawn) | 37.3 µM (inactive) | 20.2 µM (inactive) | 69 µM (inactive) | 25.7 µM (inactive) | 28.2 µM (inactive) | 18.6 µM (inactive) | 8.36 µM (inactive) | 32 µM (inactive) |  | 3.96 µM (inactive) | 13.6 µM (inactive) | 24.7 µM (inactive) | 15 µM (inactive) |  |  | 17.1 µM (inactive) | 26.8 µM (inactive) |  | 11 µM (inactive) |
| Nc1ncc(Cc2ccc3c(c2)OCO3)c(N)n1 | > 100 µM (inactive) | > 100 µM (inactive) | > 100 µM (inactive) | > 100 µM (inactive) | > 100 µM (inactive) | > 100 µM (inactive) | > 100 µM (inactive) | 91.4 µM (inactive) | > 100 µM (inactive) | > 100 µM (inactive) |  | 53.5 µM (inactive) | > 100 µM (inactive) | > 100 µM (inactive) | > 100 µM (inactive) | > 100 µM (inactive) | > 100 µM (inactive) |  | > 100 µM (inactive) |
